Source: PMC6086659 (eLife, 2018)
pKd: −log10 of the molar value.

Target: T1, GABAA receptor β1 subunit (α1β1γ2SEM tri-heteromer) (Rattus norvegicus, UniProt P15431+P62813, P15431:DEL334-439/P15431:INS334GT/P62813:DEL340-408)
T1 construct: gene Gabrb1; purified α1β1γ2SEM receptor-Fab complex (M3/M4 loop deletions in α1 and β1; full-length γ2S); with GABAA receptor α1 subunit (Gabra1, P62813) and γ2S subunit (Gabrg2, P18508); 8E3 Fab
Assay: radioligand saturation binding (scintillation proximity assay)

T1 sequence (P15431 with tags, fused parts or gaps DEL334-439/INS334GT): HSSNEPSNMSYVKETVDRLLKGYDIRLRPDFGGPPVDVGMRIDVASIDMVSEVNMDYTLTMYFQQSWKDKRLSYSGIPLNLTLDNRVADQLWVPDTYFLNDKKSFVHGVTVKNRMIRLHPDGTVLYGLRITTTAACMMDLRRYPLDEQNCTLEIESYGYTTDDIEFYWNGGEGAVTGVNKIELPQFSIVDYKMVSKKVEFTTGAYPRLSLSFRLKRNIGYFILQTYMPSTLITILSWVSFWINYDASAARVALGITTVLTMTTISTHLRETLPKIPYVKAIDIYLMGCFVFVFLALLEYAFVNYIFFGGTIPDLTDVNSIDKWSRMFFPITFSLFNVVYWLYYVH
T1 sequence (P62813 with tags, fused parts or gaps DEL340-408): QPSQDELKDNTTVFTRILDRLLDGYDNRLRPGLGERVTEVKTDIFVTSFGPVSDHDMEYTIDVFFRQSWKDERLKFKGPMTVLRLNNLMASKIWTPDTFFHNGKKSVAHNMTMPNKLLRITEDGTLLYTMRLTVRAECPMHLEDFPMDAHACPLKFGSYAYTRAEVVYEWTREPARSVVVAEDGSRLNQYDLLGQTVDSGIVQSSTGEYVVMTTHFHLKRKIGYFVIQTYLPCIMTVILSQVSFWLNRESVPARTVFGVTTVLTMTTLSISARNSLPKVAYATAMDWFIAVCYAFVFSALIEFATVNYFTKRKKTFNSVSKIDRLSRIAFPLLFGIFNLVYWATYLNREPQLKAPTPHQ
T1 sequence (P18508 39-466 partner): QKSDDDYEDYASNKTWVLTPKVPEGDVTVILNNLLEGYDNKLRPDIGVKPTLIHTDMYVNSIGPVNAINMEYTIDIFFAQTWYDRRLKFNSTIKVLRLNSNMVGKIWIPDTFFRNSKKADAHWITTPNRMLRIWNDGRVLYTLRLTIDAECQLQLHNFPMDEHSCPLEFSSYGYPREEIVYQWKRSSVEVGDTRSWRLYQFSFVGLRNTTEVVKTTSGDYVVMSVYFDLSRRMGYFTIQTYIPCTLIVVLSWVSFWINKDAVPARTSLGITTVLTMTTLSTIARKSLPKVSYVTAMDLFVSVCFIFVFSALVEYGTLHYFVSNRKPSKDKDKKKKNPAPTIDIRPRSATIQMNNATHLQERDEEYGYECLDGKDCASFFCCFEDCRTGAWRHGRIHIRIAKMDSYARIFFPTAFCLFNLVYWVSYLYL

NCc1cc(=O)[nH]o1 [muscimol]
pKd: 6.96
